Reference: patent publication US20020111274A1, “1-alkyl-3-[1-(substituted phenyl) benzotriazol-6-yl] uracils” (BASF Aktiengesellschaft, priority 2000, published 2002)

Key:
Parameters in all cases: scale not given here
AMBEL Ragweed, Common [1] = assay: Preemergence herbicidal evaluation, AMBEL; type: in vivo, Ambrosia artemisifolia, L.; details: preemergence
Outline: (§1)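 Seeds mixed with potting soil in cups, then sprayed preemergence with aqueous acetone test solution at about 0.013 to 0.800 kg per hectare equivalent. Cups kept under standard greenhouse care; plants rated on a visual scale four to five weeks after treatment.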

SETVI Foxtail, Green [2] = assay: Postemergence herbicidal evaluation, SETVI; type: in vivo, Setaria viridis, (L.) Beau; details: postemergence spray, rated about two-three weeks after treatment
Outline: (§2)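 Visual injury rating ~2–3 wk post-spray; replicate tests averaged. Two-week-old seedlings; foliar spray at 40 psi; 0.006–0.400 kg ai/ha in 80/20 acetone/water + 1.0% methylated seed oil.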

GLXMAW Soybean, Williams [3] = assay: Postemergence herbicidal evaluation, GLXMAW; type: in vivo, Glycine max, (L.) Merr. cv Williams; details: postemergence spray, rated about two-three weeks after treatment
Outline: as §2

CASOB Sicklepod [4] = assay: Preemergence herbicidal evaluation, CASOB; type: in vivo, Cassia obtusifolia, L.; details: preemergence
Outline: as §1

GALAP Galium [5] = assay: Preemergence herbicidal evaluation, GALAP; type: in vivo, Galium aparine; details: preemergence
Outline: as §1

[6] = tested on: CHEAL Lambsquarters, Common; assay: Preemergence herbicidal evaluation, CHEAL; type: in vivo, Chenopodium album, L.; details: preemergence
Outline: as §1

ORYSAT Rice, Tebonnet [7] = assay: Preemergence herbicidal evaluation, ORYSAT; type: in vivo, Oryza sativa, (L.); details: preemergence
Outline: as §1

ORYSAT Rice, Tebonnet [8] = assay: Postemergence herbicidal evaluation, ORYSAT; type: in vivo, Oryza sativa, (L.); details: postemergence spray, rated about two-three weeks after treatment
Outline: as §2

ABUTH Velvetleaf [9] = assay: Preemergence herbicidal evaluation, ABUTH; type: in vivo, Abutilon theophrasti, Medic.; details: preemergence
Outline: as §1

[10] = tested on: CHEAL Lambsquarters, Common; assay: Postemergence herbicidal evaluation, CHEAL; type: in vivo, Chenopodium album, L.; details: postemergence spray, rated about two-three weeks after treatment
Outline: as §2

AMBEL Ragweed, Common [11] = assay: Postemergence herbicidal evaluation, AMBEL; type: in vivo, Ambrosia artemisifolia, L.; details: postemergence spray, rated about two-three weeks after treatment
Outline: as §2

ABUTH Velvetleaf [12] = assay: Postemergence herbicidal evaluation, ABUTH; type: in vivo, Abutilon theophrasti, Medic.; details: postemergence spray, rated about two-three weeks after treatment
Outline: as §2

[13] = tested on: TRZAWR Wheat, Winter, cv Riband; assay: Postemergence herbicidal evaluation, TRZAWR; type: in vivo, Triticum aestivum; details: postemergence spray, rated about two-three weeks after treatment
Outline: as §2

[14] = tested on: IPOHE Morningglory, Ivyleaf; assay: Preemergence herbicidal evaluation, IPOHE; type: in vivo, Ipomoea hederacea, (L.) Jacq.; details: preemergence
Outline: as §1

ZEAMX Corn, Field [15] = assay: Postemergence herbicidal evaluation, ZEAMX; type: in vivo, Zea mays, L. (Sammel-Bezeichnung); details: postemergence spray, rated about two-three weeks after treatment
Outline: as §2

CASOB Sicklepod [16] = assay: Postemergence herbicidal evaluation, CASOB; type: in vivo, Cassia obtusifolia, L.; details: postemergence spray, rated about two-three weeks after treatment
Outline: as §2

[17] = tested on: TRZAWR Wheat, Winter, cv Riband; assay: Preemergence herbicidal evaluation, TRZAWR; type: in vivo, Triticum aestivum; details: preemergence
Outline: as §1

ECHOG Barnyardgrass [18] = assay: Preemergence herbicidal evaluation, ECHOG; type: in vivo, Echinochloa crus-galli, (L.) Beau; details: preemergence
Outline: as §1

[19] = tested on: IPOHE Morningglory, Ivyleaf; assay: Postemergence herbicidal evaluation, IPOHE; type: in vivo, Ipomoea hederacea, (L.) Jacq.; details: postemergence spray, rated about two-three weeks after treatment
Outline: as §2

ECHOG Barnyardgrass [20] = assay: Postemergence herbicidal evaluation, ECHOG; type: in vivo, Echinochloa crus-galli, (L.) Beau; details: postemergence spray, rated about two-three weeks after treatment
Outline: as §2

SETVI Foxtail, Green [21] = assay: Preemergence herbicidal evaluation, SETVI; type: in vivo, Setaria viridis, (L.) Beau; details: preemergence
Outline: as §1

GLXMAW Soybean, Williams [22] = assay: Preemergence herbicidal evaluation, GLXMAW; type: in vivo, Glycine max, (L.) Merr. cv Williams; details: preemergence
Outline: as §1

ZEAMX Corn, Field [23] = assay: Preemergence herbicidal evaluation, ZEAMX; type: in vivo, Zea mays, L. (Sammel-Bezeichnung); details: preemergence
Outline: as §1

GALAP Galium [24] = assay: Postemergence herbicidal evaluation, GALAP; type: in vivo, Galium aparine; details: postemergence spray, rated about two-three weeks after treatment
Outline: as §2

C=CCOc1ccc(C)cc1-n1nnc2cc(F)c(-n3c(=O)cc(C(F)(F)F)n(C)c3=O)cc21 [Example 42]
AMBEL herbicidal rating (AMBEL Ragweed, Common [1]; rate 0.016 kg/ha): 0.0
AMBEL herbicidal rating (AMBEL Ragweed, Common [1]; rate 0.032 kg/ha): 0.0
AMBEL herbicidal rating (AMBEL Ragweed, Common [1]; rate 0.062 kg/ha): 1.0
AMBEL herbicidal rating (AMBEL Ragweed, Common [1]; rate 0.125 kg/ha): 5.0
Postemergence herbicidal rating SETVI (SETVI Foxtail, Green [2]; 0.008 kg/ha): 0.0
Postemergence herbicidal rating SETVI (SETVI Foxtail, Green [2]; 0.016 kg/ha): 2.0
Postemergence herbicidal rating SETVI (SETVI Foxtail, Green [2]; 0.032 kg/ha): 9.0
Postemergence herbicidal rating SETVI (SETVI Foxtail, Green [2]; 0.062 kg/ha): 9.0
Postemergence herbicidal rating GLXMAW (GLXMAW Soybean, Williams [3]; 0.008 kg/ha): 5.0
Postemergence herbicidal rating GLXMAW (GLXMAW Soybean, Williams [3]; 0.016 kg/ha): 5.5
Postemergence herbicidal rating GLXMAW (GLXMAW Soybean, Williams [3]; 0.032 kg/ha): 7.0
Postemergence herbicidal rating GLXMAW (GLXMAW Soybean, Williams [3]; 0.062 kg/ha): 7.0
CASOB herbicidal rating (CASOB Sicklepod [4]; rate 0.016 kg/ha): 0.0
CASOB herbicidal rating (CASOB Sicklepod [4]; rate 0.032 kg/ha): 0.0
CASOB herbicidal rating (CASOB Sicklepod [4]; rate 0.062 kg/ha): 0.0
CASOB herbicidal rating (CASOB Sicklepod [4]; rate 0.125 kg/ha): 1.0
GALAP herbicidal rating (GALAP Galium [5]; rate 0.016 kg/ha): 0.0
GALAP herbicidal rating (GALAP Galium [5]; rate 0.032 kg/ha): 0.0
GALAP herbicidal rating (GALAP Galium [5]; rate 0.062 kg/ha): 0.0
GALAP herbicidal rating (GALAP Galium [5]; rate 0.125 kg/ha): 0.0
CHEAL herbicidal rating ([6]; rate 0.016 kg/ha): 9.0
CHEAL herbicidal rating ([6]; rate 0.032 kg/ha): 9.0
CHEAL herbicidal rating ([6]; rate 0.062 kg/ha): 9.0
CHEAL herbicidal rating ([6]; rate 0.125 kg/ha): 9.0
ORYSAT herbicidal rating (ORYSAT Rice, Tebonnet [7]; rate 0.016 kg/ha): 0.0
ORYSAT herbicidal rating (ORYSAT Rice, Tebonnet [7]; rate 0.032 kg/ha): 0.0
ORYSAT herbicidal rating (ORYSAT Rice, Tebonnet [7]; rate 0.062 kg/ha): 1.0
ORYSAT herbicidal rating (ORYSAT Rice, Tebonnet [7]; rate 0.125 kg/ha): 1.0
Postemergence herbicidal rating ORYSAT (ORYSAT Rice, Tebonnet [8]; 0.008 kg/ha): 2.0
Postemergence herbicidal rating ORYSAT (ORYSAT Rice, Tebonnet [8]; 0.016 kg/ha): 2.5
Postemergence herbicidal rating ORYSAT (ORYSAT Rice, Tebonnet [8]; 0.032 kg/ha): 2.5
Postemergence herbicidal rating ORYSAT (ORYSAT Rice, Tebonnet [8]; 0.062 kg/ha): 2.5
ABUTH herbicidal rating (ABUTH Velvetleaf [9]; rate 0.016 kg/ha): 7.0
ABUTH herbicidal rating (ABUTH Velvetleaf [9]; rate 0.032 kg/ha): 9.0
ABUTH herbicidal rating (ABUTH Velvetleaf [9]; rate 0.062 kg/ha): 9.0
ABUTH herbicidal rating (ABUTH Velvetleaf [9]; rate 0.125 kg/ha): 9.0
Postemergence herbicidal rating CHEAL ([10]; 0.008 kg/ha): 2.0
Postemergence herbicidal rating CHEAL ([10]; 0.016 kg/ha): 6.0
Postemergence herbicidal rating CHEAL ([10]; 0.032 kg/ha): 7.0
Postemergence herbicidal rating CHEAL ([10]; 0.062 kg/ha): 7.0
Postemergence herbicidal rating AMBEL (AMBEL Ragweed, Common [11]; 0.008 kg/ha): 7.0
Postemergence herbicidal rating AMBEL (AMBEL Ragweed, Common [11]; 0.016 kg/ha): 7.0
Postemergence herbicidal rating AMBEL (AMBEL Ragweed, Common [11]; 0.032 kg/ha): 7.0
Postemergence herbicidal rating AMBEL (AMBEL Ragweed, Common [11]; 0.062 kg/ha): 9.0
Postemergence herbicidal rating ABUTH (ABUTH Velvetleaf [12]; 0.008 kg/ha): 7.0
Postemergence herbicidal rating ABUTH (ABUTH Velvetleaf [12]; 0.016 kg/ha): 9.0
Postemergence herbicidal rating ABUTH (ABUTH Velvetleaf [12]; 0.032 kg/ha): 9.0
Postemergence herbicidal rating ABUTH (ABUTH Velvetleaf [12]; 0.062 kg/ha): 9.0
Postemergence herbicidal rating TRZAWR ([13]; 0.008 kg/ha): 2.5
Postemergence herbicidal rating TRZAWR ([13]; 0.016 kg/ha): 2.5
Postemergence herbicidal rating TRZAWR ([13]; 0.032 kg/ha): 3.0
Postemergence herbicidal rating TRZAWR ([13]; 0.062 kg/ha): 4.0
IPOHE herbicidal rating ([14]; rate 0.016 kg/ha): 0.0
IPOHE herbicidal rating ([14]; rate 0.032 kg/ha): 0.0
IPOHE herbicidal rating ([14]; rate 0.062 kg/ha): 0.0
IPOHE herbicidal rating ([14]; rate 0.125 kg/ha): 6.0
Postemergence herbicidal rating ZEAMX (ZEAMX Corn, Field [15]; 0.008 kg/ha): 5.0
Postemergence herbicidal rating ZEAMX (ZEAMX Corn, Field [15]; 0.016 kg/ha): 5.0
Postemergence herbicidal rating ZEAMX (ZEAMX Corn, Field [15]; 0.032 kg/ha): 4.5
Postemergence herbicidal rating ZEAMX (ZEAMX Corn, Field [15]; 0.062 kg/ha): 5.0
Postemergence herbicidal rating CASOB (CASOB Sicklepod [16]; 0.008 kg/ha): 0.0
Postemergence herbicidal rating CASOB (CASOB Sicklepod [16]; 0.016 kg/ha): 0.0
Postemergence herbicidal rating CASOB (CASOB Sicklepod [16]; 0.032 kg/ha): 4.0
Postemergence herbicidal rating CASOB (CASOB Sicklepod [16]; 0.062 kg/ha): 4.0
TRZAWR herbicidal rating ([17]; rate 0.016 kg/ha): 0.0
TRZAWR herbicidal rating ([17]; rate 0.032 kg/ha): 0.0
TRZAWR herbicidal rating ([17]; rate 0.062 kg/ha): 0.0
TRZAWR herbicidal rating ([17]; rate 0.125 kg/ha): 1.0
ECHCG herbicidal rating (ECHOG Barnyardgrass [18]; rate 0.016 kg/ha): 1.0
ECHCG herbicidal rating (ECHOG Barnyardgrass [18]; rate 0.032 kg/ha): 3.0
ECHCG herbicidal rating (ECHOG Barnyardgrass [18]; rate 0.062 kg/ha): 3.0
ECHCG herbicidal rating (ECHOG Barnyardgrass [18]; rate 0.125 kg/ha): 7.0
Postemergence herbicidal rating IPOHE ([19]; 0.008 kg/ha): 9.0
Postemergence herbicidal rating IPOHE ([19]; 0.016 kg/ha): 9.0
Postemergence herbicidal rating IPOHE ([19]; 0.032 kg/ha): 9.0
Postemergence herbicidal rating IPOHE ([19]; 0.062 kg/ha): 9.0
Postemergence herbicidal rating ECHCG (ECHOG Barnyardgrass [20]; 0.008 kg/ha): 0.0
Postemergence herbicidal rating ECHCG (ECHOG Barnyardgrass [20]; 0.016 kg/ha): 1.0
Postemergence herbicidal rating ECHCG (ECHOG Barnyardgrass [20]; 0.032 kg/ha): 1.0
Postemergence herbicidal rating ECHCG (ECHOG Barnyardgrass [20]; 0.062 kg/ha): 1.0
SETVI herbicidal rating (SETVI Foxtail, Green [21]; rate 0.016 kg/ha): 3.0
SETVI herbicidal rating (SETVI Foxtail, Green [21]; rate 0.032 kg/ha): 7.0
SETVI herbicidal rating (SETVI Foxtail, Green [21]; rate 0.062 kg/ha): 9.0
SETVI herbicidal rating (SETVI Foxtail, Green [21]; rate 0.125 kg/ha): 9.0
GLXMAW herbicidal rating (GLXMAW Soybean, Williams [22]; rate 0.016 kg/ha): 0.0
GLXMAW herbicidal rating (GLXMAW Soybean, Williams [22]; rate 0.032 kg/ha): 3.0
GLXMAW herbicidal rating (GLXMAW Soybean, Williams [22]; rate 0.062 kg/ha): 3.0
GLXMAW herbicidal rating (GLXMAW Soybean, Williams [22]; rate 0.125 kg/ha): 5.0
ZEAMX herbicidal rating (ZEAMX Corn, Field [23]; rate 0.016 kg/ha): 0.0
ZEAMX herbicidal rating (ZEAMX Corn, Field [23]; rate 0.032 kg/ha): 0.0
ZEAMX herbicidal rating (ZEAMX Corn, Field [23]; rate 0.062 kg/ha): 1.0
ZEAMX herbicidal rating (ZEAMX Corn, Field [23]; rate 0.125 kg/ha): 4.0
Postemergence herbicidal rating GALAP (GALAP Galium [24]; 0.008 kg/ha): 1.0
Postemergence herbicidal rating GALAP (GALAP Galium [24]; 0.016 kg/ha): 1.0
Postemergence herbicidal rating GALAP (GALAP Galium [24]; 0.032 kg/ha): 1.0
Postemergence herbicidal rating GALAP (GALAP Galium [24]; 0.062 kg/ha): 1.0
